Where a SMILES comes first, the peptide text is derived from it. [ ]: non-standard residue; d: D form. β3hW = N[C@H](CC(=O)O)Cc1c[nH]c2ccccc12; β3hY = N[C@H](CC(=O)O)Cc1ccc(O)cc1; β3hR = N=C(N)NCCC[C@H](N)CC(=O)O; β3hF = N[C@H](CC(=O)O)Cc1ccccc1; β3hQ = NC(=O)CC[C@H](N)CC(=O)O; βAla = NCCC(=O)O
Target: Bcl-xL (Homo sapiens, UniProt Q07817)
Assay: Competition fluorescence polarization
Assay type: binding
Details: competition FP Ki, relative to α-peptide 1

Chain of Bcl-xL (Q07817 whole entry): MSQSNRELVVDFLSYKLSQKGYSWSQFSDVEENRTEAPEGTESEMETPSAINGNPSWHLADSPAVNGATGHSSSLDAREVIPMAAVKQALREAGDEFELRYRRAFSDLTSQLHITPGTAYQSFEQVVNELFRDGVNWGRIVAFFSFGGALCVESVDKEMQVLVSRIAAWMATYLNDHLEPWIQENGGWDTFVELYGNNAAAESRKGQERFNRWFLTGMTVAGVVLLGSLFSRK

With `CC[C@H](C)[C@H](NC(C)=O)C(=O)N[C@H](CC(=O)N[C@H](C(=O)N[C@@H](C)C(=O)N[C@@H](CCC(N)=O)CC(=O)N[C@@H](CCC(=O)O)C(=O)N[C@@H](CC(C)C)C(=O)N[C@@H](CCCNC(=N)N)CC(=O)N[C@@H](CCCNC(=N)N)C(=O)N[C@H](C(=O)NCCC(=O)N[C@@H](CC(=O)O)C(=O)N[C@@H](CCC(=O)O)C(=O)N[C@H](CC(=O)N[C@@H](CC(N)=O)C(=O)N[C@@H](C)C(=O)N[C@H](CC(=O)N[C@@H](Cc1ccc(O)cc1)C(N)=O)Cc1ccc(O)cc1)Cc1ccccc1)[C@@H](C)CC)[C@@H](C)CC)Cc1c[nH]c2ccccc12` [3c] (Ac-I[β3hW]IA[β3hQ]EL[β3hR]RI[βAla]DE[β3hF]NA[β3hY]Y-NH2) the “Affinity for Bcl-xL, fold weaker than observed for 1” value was 23 fold.

— publication PMC3364022 (Journal of the American Chemical Society, 2011)
